Here are results for six molecules from patent US4656258A, “Macrocin derivatives” (Eli Lilly and Company, priority 1985, dated 1987).

In one assay the test system is Eschericia coli TEM. Kind of assay: agar-dilution MIC. In kind it is cell-based. The protocol:
(§1) The MIC's in Table I were determined by standard agar-dilution assays. The MIC's in Table II were obtained using a conventional broth-dilution microtiter test.

Assay [1] has as its system Haemophilus influenzae 76. Kind of assay: agar-dilution MIC. It is filed as cell-based. As to conditions: Haemophilus influenzae 76, ampicillin-resistant strain. Here is the method:
as §1

The subject of assay [2] is Haemophilus influenzae C.L. As to the kind of experiment: agar-dilution MIC. In kind it is cell-based. The conditions noted are these: ampicillin-sensitive strain. The protocol:
as §1

For assay [3], the system named is Klebsiella pneumoniae X26. As to the kind of experiment: agar-dilution MIC. In kind it is cell-based. The protocol:
as §1

The test system of assay [4] is Staphylococcus aureus S13E. As to the kind of experiment: agar-dilution MIC. In kind it is cell-based. Here is the method: as §1
Assay [5] has as its system Staphylococcus aureus V41. Kind of assay: agar-dilution MIC. It is filed as cell-based. As to conditions: Staphylococcus aureus V41, penicillin-resistant strain. The protocol:
as §1

Assay [6] concerns Staphylococcus aureus X1.1. Kind of assay: agar-dilution MIC. It is filed as cell-based. Here is the method: as §1
Assay [7] relates to Staphylococcus aureus X400. Kind of assay: agar-dilution MIC. The conditions noted are these: Staphylococcus aureus X400, methicillin-resistant strain. It is filed as cell-based. Here is the method:
as §1

Assay [8] has as its system Staphylococcus epidermidis EPI1. As to the kind of experiment: agar-dilution MIC. It is filed as cell-based. Here is the method: as §1
Assay [9] concerns Staphylococcus epidermidis EPI2. As to the kind of experiment: agar-dilution MIC. It is filed as cell-based. Here is the method:
as §1

Assay [10] concerns Streptococcus pneumoniae Group D 9960. As to the kind of experiment: agar-dilution MIC. It is filed as cell-based. As to conditions: GROUPD9960. The protocol: as §1
For assay [11], the system named is Streptococcus pneumoniae Group D X66. Kind of assay: agar-dilution MIC. It is filed as cell-based. Here is the method:
as §1

Assay [12] concerns Streptococcus pneumoniae Park I. Kind of assay: agar-dilution MIC. It is filed as cell-based. Here is the method: as §1
Assay [13] relates to Streptococcus pyogenes C203. As to the kind of experiment: agar-dilution MIC. It is filed as cell-based. The protocol:
as §1

In assay [14] the test system is Pasteurella multocida 17E. As to the kind of experiment: broth-dilution microtiter MIC. The conditions noted are these: bovine isolate. It is filed as cell-based. Here is the method:
as §1

Assay [15] relates to Pasteurella multocida 60A. Kind of assay: broth-dilution microtiter MIC. It is filed as cell-based. As to conditions: avian isolate. The protocol: as §1
A further assay concerns Staphylococcus aureus. Kind of assay: broth-dilution microtiter MIC. In kind it is cell-based. Here is the method:
as §1

The subject of another assay is Streptococcus sp. 80. As to the kind of experiment: broth-dilution microtiter MIC. In kind it is cell-based. The protocol:
as §1

The conditions of assay [16]: macrocin vs tylosin, lactenocin vs desmycosin; cited from earlier work.
Assay [17] has as its system Mycoplasma hyopneumonia S-5972. As to the kind of experiment: broth-dilution microtiter MIC. In kind it is cell-based. As to conditions: S5972. Here is the method: as §1
A further assay has as its system Mycoplasma gallisepticum. Kind of assay: antimycoplasmal activity in experimentally infected chicks. In kind it is in vivo. As to conditions: gavage, 0.5 g/gal × 5, 21 days after infection; for Number with Antibodies / Number Tested: antibodies to M. gallisepticum; for Number with Antibodies / Number Tested / Number with Air-Sac Lesions / Number Treated: infected control 10/10, uninfected control 0/10; for Mortality: infected control 2/7. The protocol:
In these tests infections were induced in chicks by injecting 0.2 ml of a broth culture of M. gallisepticum into the abdominal air sac of one- to three-day-old chicks. The compounds were administered by gavage at a dose equivalent to 0.5 g/gal two times on the day of infection, two times on the day following infection and one time on the third day. Twenty-one days after infection the chicks were weighed, a blood sample was taken, and the chicks were sacrificed. The presence or absence of air-sac lesions was recorded.

In brackets after ≈: the same amount, converted by molar mass. A value given as a limit tells only on which side of the number the result lay.

For `CCC1OC(=O)CC(OC(C)=O)C(C)C(OC2OC(C)C(OC3CC(C)(O)C(O)C(C)O3)C(N(C)C)C2O)C(CC=O)CC(C)C(=O)C=CC(C)=CC1COC1OC(C)C(O)C(O)C1OC` (stereo not shown) [3-Acetyl-macrocin, 3-O-Acetylmacrocin], the MIC in the assay with Eschericia coli TEM is 64 µg/mL (≈ 67.8 µM); in assay [1], 16 µg/mL (≈ 16.9 µM); in assay [2], 32 µg/mL (≈ 33.9 µM); in assay [3], 64 µg/mL (≈ 67.8 µM); in assay [4], 1 µg/mL (≈ 1.06 µM); in [5] it was 1 µg/mL (≈ 1.06 µM). Moreover, the MIC in [6] came out at 0.5 µg/mL (≈ 0.53 µM); in assay [7], 2 µg/mL (≈ 2.12 µM); in [8], 0.5 µg/mL (≈ 0.53 µM); in [9], 2 µg/mL (≈ 2.12 µM); in [10], 2 µg/mL (≈ 2.12 µM); in [11] it was 2 µg/mL (≈ 2.12 µM). Also, the MIC in assay [12] is 0.5 µg/mL (≈ 0.53 µM); in assay [13], 0.25 µg/mL (≈ 0.265 µM); in [14] it was 50 µg/mL (≈ 53 µM); in assay [15] it was > 50 µg/mL; with Staphylococcus aureus it was 1.56 µg/mL (≈ 1.65 µM); against Streptococcus sp. 80, 1.56 µg/mL (≈ 1.65 µM).

`CCC1OC(=O)CC(O)C(C)C(OC2OC(C)C(OC3CC(C)(O)C(O)C(C)O3)C(N(C)C)C2O)C(CC=O)CC(C)C(=O)C=CC(C)=CC1COC1OC(C)C(O)C(O)C1OC` (stereo not shown) [macrocin]: the “antibiotic activity relative to tylosin / desmycosin” value in [16] is “less than that of tylosin”.

On to `CCC1OC(=O)CC(OC(C)=O)C(C)C(OC2OC(C)C(O)C(N(C)C)C2O)C(CC=O)CC(C)C(=O)C=CC(C)=CC1COC1OC(C)C(O)C(O)C1OC` (stereo not shown) [3-Acetyl-lactenocin, 3-O-Acetyllactenocin], for which the MIC turned out to be 64 µg/mL (≈ 80 µM) in the assay on Eschericia coli TEM; 8 µg/mL (≈ 10 µM) in [1]; 16 µg/mL (≈ 20 µM) in assay [2]; 32 µg/mL (≈ 40 µM) in assay [3]; 2 µg/mL (≈ 2.5 µM) in [4]; 2 µg/mL (≈ 2.5 µM) in [5]. The MIC in assay [6] was 1 µg/mL (≈ 1.25 µM); in assay [7] it was 4 µg/mL (≈ 5 µM); in assay [8], 1 µg/mL (≈ 1.25 µM); in [9], 4 µg/mL (≈ 5 µM); in [10] it was 8 µg/mL (≈ 10 µM); in assay [11], 8 µg/mL (≈ 10 µM). Besides, the MIC in assay [12] was 0.5 µg/mL (≈ 0.625 µM); in assay [13], 0.25 µg/mL (≈ 0.313 µM); in assay [14], 12.5 µg/mL (≈ 15.6 µM); in assay [15], 25 µg/mL (≈ 31.3 µM); against Staphylococcus aureus, 3.12 µg/mL (≈ 3.9 µM); against Streptococcus sp. 80, 1.56 µg/mL (≈ 1.95 µM).

As for `CCCC(=O)OC1C(C)OC(OC2C(C)OC(OC3C(CC=O)CC(C)C(=O)C=CC(C)=CC(COC4OC(C)C(O)C(O)C4OC)C(CC)OC(=O)CC(OC(C)=O)C3C)C(O)C2N(C)C)CC1(C)O` (stereo not shown) [3-Acetyl-4"-(n-Butyryl)-macrocin, 3-O-Acetyl-4"-O-(n-Butyryl)macrocin], the MIC is > 128 µg/mL in the assay on Eschericia coli TEM; 32 µg/mL (≈ 31.6 µM) in assay [1]; 32 µg/mL (≈ 31.6 µM) in assay [2]; 64 µg/mL (≈ 63.1 µM) in [3]; 2 µg/mL (≈ 1.97 µM) in assay [4]; 1 µg/mL (≈ 0.986 µM) in [5]. Also, the MIC is 1 µg/mL (≈ 0.986 µM) in assay [6]; 2 µg/mL (≈ 1.97 µM) in [7]; 1 µg/mL (≈ 0.986 µM) in assay [8]; 2 µg/mL (≈ 1.97 µM) in [9]; 2 µg/mL (≈ 1.97 µM) in [10]; 2 µg/mL (≈ 1.97 µM) in assay [11]. The MIC in [12] worked out at 0.25 µg/mL (≈ 0.246 µM); in assay [13], 0.5 µg/mL (≈ 0.493 µM); in [17], 0.048 µg/mL (≈ 0.0473 µM); in assay [14], 50 µg/mL (≈ 49.3 µM); in assay [15], 50 µg/mL (≈ 49.3 µM); with Staphylococcus aureus it was 3.12 µg/mL (≈ 3.08 µM). Also, in the assay with Streptococcus sp. 80, the MIC amounted to 0.39 µg/mL (≈ 0.385 µM). In addition, in the assay on Mycoplasma gallisepticum, the “Number with Antibodies / Number Tested” value is 7/9. Also, in the assay with Mycoplasma gallisepticum, the Mortality is 1/7. Also, the “Number with Air-Sac Lesions / Number Treated” value in the assay with Mycoplasma gallisepticum is listed as 7/10.

On to `CCC1OC(=O)CC(O)C(C)C(OC2OC(C)C(O)C(N(C)C)C2O)C(CC=O)CC(C)C(=O)C=CC(C)=CC1COC1OC(C)C(O)C(O)C1OC` (stereo not shown) [lactenocin], for which the “antibiotic activity relative to tylosin / desmycosin” value in [16] is “less than that of tylosin and desmycosin, respectively”.

For `CCC1OC(=O)CC(OC(C)=O)C(C)C(OC2OC(C)C(OC3CC(C)(O)C(OC(=O)CC(C)C)C(C)O3)C(N(C)C)C2O)C(CC=O)CC(C)C(=O)C=CC(C)=CC1COC1OC(C)C(O)C(O)C1OC` (stereo not shown) [3-Acetyl-4"-Isovaleryl-macrocin, 3-O-acetyl-4"-O-isovalerylmacrocin], the MIC against Eschericia coli TEM was 128 µg/mL (≈ 124 µM); in assay [1], 16 µg/mL (≈ 15.6 µM); in assay [2] it was 32 µg/mL (≈ 31.1 µM); in assay [3], 64 µg/mL (≈ 62.2 µM); in [4] it was 1 µg/mL (≈ 0.973 µM); in [5], 1 µg/mL (≈ 0.973 µM). Moreover, the MIC in assay [6] turned out to be 0.5 µg/mL (≈ 0.486 µM); in [7] it was 2 µg/mL (≈ 1.95 µM); in assay [8], 0.5 µg/mL (≈ 0.486 µM); in assay [9], 2 µg/mL (≈ 1.95 µM); in [10], 2 µg/mL (≈ 1.95 µM); in [11], 2 µg/mL (≈ 1.95 µM). Also, the MIC in assay [12] is 0.5 µg/mL (≈ 0.486 µM); in assay [13], 0.25 µg/mL (≈ 0.243 µM); in [17], 0.048 µg/mL (≈ 0.0467 µM); in [14] it was 50 µg/mL (≈ 48.6 µM); in [15], > 50 µg/mL; with Staphylococcus aureus, 1.56 µg/mL (≈ 1.52 µM). The molecule also showed an MIC in the assay with Streptococcus sp. 80 of 0.39 µg/mL (≈ 0.379 µM). Also, in the assay with Mycoplasma gallisepticum, the “Number with Antibodies / Number Tested” value is listed as 10/10. For the same molecule, the Mortality with Mycoplasma gallisepticum is reported as 0/10. Also, the “Number with Air-Sac Lesions / Number Treated” value in the assay on Mycoplasma gallisepticum is 1/10.
